# Data: patent US20230113516A1, “5-AMINO-2,3-DIHYDRO-1,4-PHTHAL[…] TREATMENT OF ACUTE LUNG INJURY” (Metriopharm AG, priority 2020, published 2023)
# Read-outs that look alike come from different tables or passages of the source.
# Tests used:
# Vero B4 cells = details: antivirally effective concentrations; observation period of 3 days; tested 0.25-4 mM
# Source text: Herein viable cells with an intact mitochondrial succinate-tetrazolium dehydrogenase system effect an enzymatic conversion of the feebly red tetrazolium salt WST-1 (4-[3-(4-iodophenyl)-2-(4-nitrophenyl)-2H-5-tetrazolio]-1,3 benzene disulfonate) into dark red formazan. This color change can be measured photometrically in a spectrophotometer. Thus, the WST assay is a very sensitive method for measuring the toxicity of substances on the cell metabolism. The value for untreated cells was set to 100%.
# The value for untreated cells was set to 100%. 1 μM staurosporine (an indolocarbazole compound from Streptomyces staurosporeus, an apoptosis inducer) was used as positive control.
# [1] = system: 3-nitrotyrosine formation in the lung parenchyma; details: for 3-nitrotyrosine stained surface area, mean ± SEM: cigarette smoke alone 3.07, room air 0.24
# Description: C57BL/6J mice (n=25, 5 per group; male/female, 3-6 months, 20-30 g; Charles River GmbH, Sulzfeld, Germany) were anesthetized with a ketamine (100 mg/kg body weight) and xylazine (20 mg/kg body weight) intraperitoneal injection (Ceva Tiergesundheit GmbH, Dusseldorf, Germany) containing heparin (50 I.E. heparin/g body weight; Ratiopharm GmbH, Ulm, Germany). The lungs and the heart were removed from the chest cavity and placed on the ILU system (see FIGS. 1A and 1B). Lungs were ventilated in an isolated chamber using normoxic gas (21% O2, 5% CO2, 74% N2; 150 breaths per minute at the PEEP (positive end-expiratory pressure) of 3 cm H2O) and perfused with a modified Krebs-Henseleit buffer (120.0 mM NaCl, 4.3 mM KCl, 1.1 mM KH2PO4, 2.4 mM CaCl2, 1.3 mM MgCl2, 13.14 mM glucose, 0.25 mM hydroxyethyl starch 200000/0.5, 25.0 mM NaHCO3 adjusted to a constant pH range of […] L-arginine; Serag-Wissner GmbH & Co. KG, Naila, Germany) at a temperature of 37° C. Lung weight, right and left ventricle pressure, as well as ventilatory pressure were monitored and recorded during the whole experimental procedure. After 5-10 minutes, when the lung was properly flushed and all the parameters were stable, 5-amino-2,3-dihydro-1,4-phthalazinedione sodium salt was applied by adding 150 μl of a stock solution to 15 ml of the circulating perfusion buffer. The substance was applied 10 minutes prior to the first cigarette smoke application. Cigarette smoke was applied via trachea while lung is perfused with the buffer containing 5-amino-2,3-dihydro-1,4-phthalazinedione sodium salt. Cigarette smoke was prepared freshly before each application, by burning one cigarette (research cigarettes 3R4F, University of Kentucky, USA) in one minute using normoxic gas at the flow of 1 l/min and collected in a 1 l glass bottle containing 5 g silica gel for removing the moist from the cigarette smoke. 50 ml of the cigarette smoke were taken via a syringe and applied to the lung via trachea (FIG. 4A) in deep breaths (periodic inflation for 3-4 s) over a period of 5 min. The application was done manually while carefully monitoring the inspiratory pressure to avoid damage of the lung. The cigarette smoke application was repeated three times with a 1 hour break in-between.
# 5-amino-2,3-dihydro-1,4-phthalazinedione sodium salt Form I was dissolved in water for injection (vehicle) at the required concentrations described above. Stock solutions were prepared in water for injection. Further 1:100 dilutions were made with modified Krebs-Henseleit buffer (see above). Stock solutions were stored at −70° C. in appropriate aliquots. The required amount of stock solution was thawed, and the corresponding working solution was prepared for immediate use.
# One hour after the third cigarette smoke application lungs were removed from the system and fixed by inflating with formalin solution (via trachea) at the pressure of 12-15 cm H2O for two hours at room temperature. Afterwards the fixed lungs were kept in PBS (phosphate buffer saline, see below) at +4° C. until further dehydration and paraffin embedding. Paraffin blocks were cut 3 μm thick, dried overnight at 37° C. and stained for 3-nitrotyrosine (3-NT).
# The immunohistochemical staining of 3-nitrotyrosine was carried out according to the following protocol:
# Stained histological samples were blindly analysed by light microscope. 3-nitrotyrosine levels in the lung parenchyma were quantified as a percentage of stained surface area. Quantification was performed under 200× magnification in 5-10 randomly selected fields with exclusion of large bronchi and vessels. One-Way ANOVA statistical test with Bonferroni correction was performed for comparison between groups. Differences with p<0.05 were considered statistically significant.
# [2] = system: murine peritoneal macrophages
# Source text: Female C57Bl/6 mice (6-8 weeks old) were purchased from Envigo (San Petro al Natisone, Udine, Italy) and housed under standard laboratory conditions (specific-pathogen free). Food and water were applied ad libitum. Animal handling and the study protocol were in accordance with international guidelines.
# Four days after i.p. injection of 3% thioglycolate medium (w/v in distilled water; St Louis, Mo. USA), murine peritoneal macrophages (PM) were isolated according to the protocol of Zhang et al. (Curr. Protoc. Immunol. 2008, Chapter 14, Unit 14.1).
# Briefly, cells were collected by injecting 10 ml of complete medium (DMEM/F12 Medium containing 10% fetal calf serum) into the peritoneal cavity using a 30 cc syringe attached to a 19-G needle, followed by slowly withdrawing the lavage fluid. Cells were washed twice in PBS (phosphate buffered saline) and counted.
# One hour prior to LPS (lipopolysaccharide) stimulation (0.1 μg/ml; Escherichia coli […], St Louis, Mo. USA), cells (0.5×10^6 cells/well in 24-well plates with 1 ml total volume of medium) were pre-treated with scalar concentrations of 5-amino-2,3-dihydro-1,4-phthalazinedione sodium salt (ranging from 1 mM to 0.025 mM). Two independent experiments (each using cells pooled from three mice) were performed and secreted cytokine levels were determined 24, 48 and 72 h after LPS stimulation using ELISA technique.
# PCI model of sepsis = details: for survival rate after 10 days: therapeutic mode, n=6
# Description: In the PCI (peritoneal contamination and infection) model of sepsis a human fecal suspension was injected intraperitoneally to mice (3 μl/g body weight). To all groups the antibiotic meropenem (25 mg/kg body weight) was administered 6 hours after PCI induction. At this time point all mice received also a volume loading with a 5% glucose solution. This treatment is repeated on the two consecutive days after PCI induction, at intervals of 24 hours. • Group I: control (not infected) • Group II: PCI (infected, without treatment) • Group III: PCI+2 mg/kg body weight 5-amino-2,3-dihydro-1,4-phthalazinedione sodium salt Form I • Group IV: PCI+5 mg/kg body weight 5-amino-2,3-dihydro-1,4-phthalazinedione sodium salt Form I
# Starting at 8 hours after PCI induction the mice of the treatment groups were treated for two consecutive days every 8 hours with an intraperitoneal injection of 2 mg/kg body weight, respectively 5 mg/kg body weight 5-amino-2,3-dihydro-1,4-phthalazinedione sodium salt Form I. Thereupon the mice were treated for further eight days with an intraperitoneal injection of 2 mg/kg body weight, respectively 5 mg/kg body weight 5-amino-2,3-dihydro-1,4-phthalazinedione sodium salt Form I once daily. (n=6)
# Herein the mice were treated with 5 mg/kg body weight 5-amino-2,3-dihydro-1,4-phthalazinedione sodium salt Form I only, but only twice, 3 hours before PCI induction and 6 hours after (n=8).
# The Clinical Severity Score (CSS) was assessed daily for the mice of the prophylactic treatment group. The CSS was assessed according to Gonnert et al. (2011) J Surg Res 170: e123-134.
# [3] = 1 mM, pre-treatment 1 h prior to LPS (0.1 μg/ml), C57Bl/6 PMs
smiles,measurement,setting,value
"Nc1cccc2c(=O)[nH][nH]c(=O)c12.[Na] [5-amino-2,3-dihydro-1,4-phthalazinedione sodium salt]",SARS-CoV-2 nucleocapsid protein (Western Blot),SARS-CoV-2,clear reduction
same,generation of SARS-CoV-2 proteins (densitometric evaluation),SARS-CoV-2,inhibited dose-dependently
same,"toxic effect (cell viability, WST assay)",Vero B4 cells,does not display any significant toxic effect
same,cigarette smoke induced 3-nitrotyrosine formation (in words),[1]; 0.5 mM in perfusion buffer,moderate effect
same,cigarette smoke induced 3-nitrotyrosine formation (in words),[1]; 1 mM in perfusion buffer,almost completely abolished
same,cigarette smoke induced 3-nitrotyrosine formation (in words),[1]; 2 mM in perfusion buffer,almost completely abolished
same,"3-nitrotyrosine stained surface area, mean ± SEM",[1]; cigarette smoke + 0.5 mM in perfusion buffer (group C),2.24 ± 0.28 % area
same,"3-nitrotyrosine stained surface area, mean ± SEM",[1]; cigarette smoke + 1 mM in perfusion buffer (group D),0.72 ± 0.26 % area
same,"3-nitrotyrosine stained surface area, mean ± SEM",[1]; cigarette smoke + 2 mM in perfusion buffer (group E),0.37 ± 0.13 % area
same,reduction of IL-1-beta level,[2]; [3],~50%
same,reduction of IL-6 level,[2]; [3],~80%
same,reduction of IL-12 level,[2]; [3],~60%
same,reduction of TNF-alpha level,[2]; [3],about 40%
same,cytokine reduction in PMs of a second mouse strain,"[2]; Balb/c, six concentrations from 1 mM to 0.25 mM, data not shown",clear dose-dependency
same,cytokine secretion of unstimulated murine PMs,"[2]; no LPS, data not shown",did not affect
same,survival rate,"PCI model of sepsis; prophylactic mode, 5 mg/kg body weight, 3 hours before and 6 hours after PCI induction, Group IV, n=8",100%
same,recovery (Clinical Severity Score) versus untreated group,"PCI model of sepsis; prophylactic mode, 5 mg/kg body weight, in particular after Day 4",recovered clearly more quickly
same,Clinical Severity Score (CSS) versus untreated group,"PCI model of sepsis; prophylactic mode, 5 mg/kg body weight, surviving animals",less strongly diseased
same,survival rate after 10 days,"PCI model of sepsis; 2 mg/kg body weight i.p., Group III",50%
same,survival rate after 10 days,"PCI model of sepsis; 5 mg/kg body weight i.p., Group IV",83%
